Results from publication PMC2662524 (Biochemistry, 2008).

Experiments:
cytochrome P450eryF [1] = molecular target: T1, cytochrome P450eryF (Saccharopolyspora erythraea, UniProt Q00441); assay: ligand-induced spin shift; type: binding
cytochrome P450eryF [2] = molecular target: T1, cytochrome P450eryF; assay: lifetime FRET from F7GA to heme; type: binding

T1 sequence (Q00441 whole entry): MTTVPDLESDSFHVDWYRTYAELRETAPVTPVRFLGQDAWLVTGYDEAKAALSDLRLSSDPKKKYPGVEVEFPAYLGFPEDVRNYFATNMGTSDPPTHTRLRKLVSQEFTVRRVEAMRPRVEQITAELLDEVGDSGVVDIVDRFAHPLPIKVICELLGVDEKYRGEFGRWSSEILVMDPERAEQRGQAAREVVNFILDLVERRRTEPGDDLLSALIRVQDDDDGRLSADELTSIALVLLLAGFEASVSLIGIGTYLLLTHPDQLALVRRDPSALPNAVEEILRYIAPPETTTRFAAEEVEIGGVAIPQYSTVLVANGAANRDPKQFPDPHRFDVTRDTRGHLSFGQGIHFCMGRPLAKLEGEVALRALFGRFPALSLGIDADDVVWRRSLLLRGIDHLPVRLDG

Row | Compound | Kd (cytochrome P450eryF [1]) [nM] | Kd (cytochrome P450eryF [2]) [nM]
1 | CCN(CC)c1ccc2nc3c4ccccc4c(=O)cc-3oc2c1 [Nile Red] | 3200 ± 200 | –
2 | CCCCNc1ccc2c3c(cccc13)C(=O)N(CCCC)C2=O [F7GA, 2-butyl-6-(butylamino)-1H-benzo[de]isoquinoline-1,3(2H)-dione] | – | 140 ± 60
